# Columns and labels:
# [1] = target: T1, human recombinant adrenergic α2A receptor (Homo sapiens, UniProt P08913); experiment: Adrenergic α2A radioligand binding ([3H]MK-912); conditions: compound at 1 μM; insect Sf9 cells; read-out: Adrenergic (1 μM) α2A, percent inhibition of specific binding
# T1 construct: expressed in transfected cells; host or cells: insect Sf9 cells
# T1 sequence (P08913 1-465): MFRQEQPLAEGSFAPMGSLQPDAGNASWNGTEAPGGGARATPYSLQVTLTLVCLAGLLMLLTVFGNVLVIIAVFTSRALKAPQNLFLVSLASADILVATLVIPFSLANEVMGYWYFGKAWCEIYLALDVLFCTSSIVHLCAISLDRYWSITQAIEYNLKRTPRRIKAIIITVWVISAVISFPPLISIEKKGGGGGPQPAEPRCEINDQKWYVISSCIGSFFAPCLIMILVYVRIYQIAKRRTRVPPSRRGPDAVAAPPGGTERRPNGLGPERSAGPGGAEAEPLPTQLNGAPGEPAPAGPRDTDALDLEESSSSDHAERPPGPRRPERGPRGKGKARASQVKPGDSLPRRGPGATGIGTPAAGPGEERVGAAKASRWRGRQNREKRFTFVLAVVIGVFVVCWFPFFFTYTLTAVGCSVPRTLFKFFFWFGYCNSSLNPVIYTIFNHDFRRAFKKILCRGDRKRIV
# Method: To evaluate in radioligand binding assays the activity of compounds of the invention, human recombinant adrenergic α2A receptor expressed in insect Sf9 cells (Uhlen S et al. J Pharmacol Exp Ther. 271:1558, 1994) in a modified Tris-HCl buffer (50 mM Tris-HCl, pH 7.4, 12.5 mM MgCl2, 2 mM EDTA) was used. Compounds of invention were incubated with 1 nM [^3H]MK-912 for 60 minutes at 25° C. MK912 is (2S-trans)-1,3,4,5′,6,6′,7,12b-octahydro-1′,3′-dimethyl-spiro[2H-benzofuro[2,3-a]quinolizine-2,4′(1′H)-pyrimidin]-2′(3′H)-one hydrochloride Non-specific binding was estimated in the presence of 10 μM WB-4101 (2-(2,6-Dimethoxyphenoxyethyl)aminomethyl-1,4-benzodioxane hydrochloride). Receptor proteins were filtered and washed, the filters were then counted to determine [^3H]MK-912 specifically bound. Compounds were screened at 1 μM or lower, using 1% DMSO as vehicle. Biochemical assay results are presented as the percent inhibition of specific binding in Table 6.
# [2] = target: T2, human recombinant adrenergic α2B receptor (Homo sapiens, UniProt P18089); experiment: Adrenergic α2B radioligand binding ([3H]Rauwolscine); conditions: compound at 1 μM; CHO-K1 cells; read-out: Adrenergic (1 μM) α2B, percent inhibition of specific binding
# T2 construct: expressed in transfected cells; host or cells: CHO-K1 cells
# T2 sequence (P18089 1-450): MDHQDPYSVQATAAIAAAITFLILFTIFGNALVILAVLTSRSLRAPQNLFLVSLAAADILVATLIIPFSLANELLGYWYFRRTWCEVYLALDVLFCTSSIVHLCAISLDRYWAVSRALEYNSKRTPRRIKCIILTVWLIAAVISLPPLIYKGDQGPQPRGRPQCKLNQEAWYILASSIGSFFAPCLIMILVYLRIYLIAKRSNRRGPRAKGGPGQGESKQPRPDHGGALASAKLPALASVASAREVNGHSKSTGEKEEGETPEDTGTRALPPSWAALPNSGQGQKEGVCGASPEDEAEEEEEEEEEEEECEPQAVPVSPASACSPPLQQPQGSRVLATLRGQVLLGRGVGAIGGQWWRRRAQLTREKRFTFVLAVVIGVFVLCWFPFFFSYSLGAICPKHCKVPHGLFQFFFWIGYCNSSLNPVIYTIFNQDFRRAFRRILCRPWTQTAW
# Method: To evaluate in radioligand binding assays the activity of compounds of the invention, human recombinant adrenergic α2B receptor expressed in Chinese hamster ovary (CHO-K1) cells (Uhlen S et al. Eur. J. Pharmacol. 343(1):93, 1998) in a modified Tris-HCl buffer (50 mM Tris-HCl, pH 7.4, 12.5 mM MgCl2, 1 mM EDTA, 0.2% BSA) was used. Compounds of the invention were incubated with 2.5 nM [3H]Rauwolscine for 60 minutes at 25° C. Non-specific binding was estimated in the presence of 10 μM Prozosin. Receptor proteins were filtered and washed, the filters were then counted to determine [^3H]Rauwolscine specifically bound. Compounds were screened at 1 μM or lower, using 1% DMSO as vehicle. Biochemical assay results are presented as the percent inhibition of specific binding in Table 6.
# [3] = target: T3, human recombinant serotonin (5-Hydroxytryptamine) 5-HT6 receptor (Homo sapiens, UniProt P50406); experiment: Serotonin 5-HT6 radioligand binding ([3H]LSD); conditions: compound at 1 μM; HeLa cells; read-out: Serotonin (1 μM) 5-HT6, percent inhibition of specific binding
# T3 construct: expressed in transfected cells; host or cells: human HeLa cells
# T3 sequence (P50406 whole entry): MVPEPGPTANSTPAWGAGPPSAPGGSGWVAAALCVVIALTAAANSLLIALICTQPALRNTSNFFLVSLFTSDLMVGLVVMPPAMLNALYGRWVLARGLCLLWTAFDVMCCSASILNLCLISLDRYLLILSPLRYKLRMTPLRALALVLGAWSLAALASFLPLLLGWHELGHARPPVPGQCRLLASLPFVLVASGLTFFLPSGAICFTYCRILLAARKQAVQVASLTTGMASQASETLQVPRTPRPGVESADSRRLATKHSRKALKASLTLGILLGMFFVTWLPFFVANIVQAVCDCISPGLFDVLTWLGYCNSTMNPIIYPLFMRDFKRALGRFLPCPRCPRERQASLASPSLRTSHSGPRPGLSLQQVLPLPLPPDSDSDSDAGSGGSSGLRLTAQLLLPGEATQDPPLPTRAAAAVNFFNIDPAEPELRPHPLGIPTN
# Method: To evaluate in radioligand binding assays the activity of compounds of the invention, human recombinant serotonin (5-Hydroxytryptamine) 5-HT6 receptor expressed in human HeLa cells (Monsma, F. J. Jr. et al., Mol. Pharmacol. 43:320, 1993) in a modified Tris-HCl buffer (50 mM Tris-HCl, pH 7.4, 150 mM NaCl, 2 mM Ascorbic Acid, 0.001% BSA) was used. Compounds of the invention were incubated with 1.5 nM [3H]Lysergic acid diethylamide (LSD) for 120 minutes at 37° C. Non-specific binding was estimated in the presence of 5 μM Serotonin (5-HT). Receptor proteins were filtered and washed, the filters were then counted to determine [3H]LSD specifically bound. Compounds were screened at 1 μM or lower, using 1% DMSO as vehicle. Biochemical assay results are presented as the percent inhibition of specific binding in Table 7.
# [4] = target: T4, human recombinant dopamine D2L receptor (Homo sapiens, UniProt P14416); experiment: Dopamine D2L radioligand binding ([3H]Spiperone); conditions: compound at 1 μM; CHO cells; read-out: Dopamine (1 μM) D2L, percent inhibition of specific binding
# T4 construct: expressed in transfected cells; host or cells: CHO cells
# T4 sequence (P14416 whole entry): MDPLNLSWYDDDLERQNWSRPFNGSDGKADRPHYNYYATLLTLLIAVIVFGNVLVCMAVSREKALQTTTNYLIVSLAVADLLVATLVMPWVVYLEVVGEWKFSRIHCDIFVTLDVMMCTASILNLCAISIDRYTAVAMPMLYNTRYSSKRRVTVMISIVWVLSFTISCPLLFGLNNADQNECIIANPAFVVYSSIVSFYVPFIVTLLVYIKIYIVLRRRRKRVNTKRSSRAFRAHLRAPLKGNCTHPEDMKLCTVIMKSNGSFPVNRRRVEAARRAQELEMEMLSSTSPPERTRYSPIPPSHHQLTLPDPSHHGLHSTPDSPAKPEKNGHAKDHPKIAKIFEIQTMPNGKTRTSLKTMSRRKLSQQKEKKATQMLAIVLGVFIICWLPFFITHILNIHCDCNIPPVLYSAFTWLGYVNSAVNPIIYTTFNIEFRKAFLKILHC
# Method: To evaluate in radioligand binding assays the activity of compounds of the invention, human recombinant dopamine D2L receptor expressed in Chinese hamster ovary (CHO) cells (Grandy, D. K. et al. Proc. Natl. Acad. Sci. USA. 86:9762, 1989; Hayes, G. et al., Mol. Endocrinol. 6:920, 1992) in a modified Tris-HCl buffer (50 mM Tris-HCl, pH 7.4, 1.4 mM Ascorbic Acid, 0.001% BSA, 150 mM NaCl) was used. Compounds of the invention were incubated with 0.16 nM [^3H]Spiperone for 120 minutes at 25° C. Non-specific binding was estimated in the presence of 10 μM Haloperidol. Receptor proteins were filtered and washed, the filters were then counted to determine [^3H]Spiperone specifically bound. Compounds were screened at 1 μM or lower, using 1% DMSO as vehicle. Biochemical assay results are presented as the percent inhibition of specific binding in Table 6.
SMILES,inhibition at 1 µM [1],inhibition at 1 µM [2],inhibition at 1 µM [3],inhibition at 1 µM [4]
"CCOC(=O)CCn1c2c(c3cc(C)ccc31)CN(C)CC2 [CD1, ethyl 3-(1,2,3,4-tetrahydro-2,8-dimethylpyrido[4,3-b]indol-5-yl)propanoate]",62%,95%,78%,
"CCOC(=O)CCn1c2c(c3cc(Cl)ccc31)CN(C)CC2 [CD17, ethyl 3-(8-chloro-1,2,3,4-tetrahydro-2-methylpyrido[4,3-b]indol-5-yl)propanoate]",87%,99%,101%,22%
"CN1CCc2c(c3cc(Cl)ccc3n2CC(=O)O)C1 [CD46, 2-(8-chloro-1,2,3,4-tetrahydro-2-methylpyrido[4,3-b]indol-5-yl)acetic acid]",13%,35%,39%,3%
"Cc1ccc2c(c1)c1c(n2CCC(=O)O)CCN(C)C1 [CD47, 3-(1,2,3,4-tetrahydro-2,8-dimethylpyrido[4,3-b]indol-5-yl)propanoic acid]",17%,24%,11%,4%
"CN1CCc2c(c3cc(Cl)ccc3n2CCC(=O)O)C1 [CD55, 3-(8-chloro-1,2,3,4-tetrahydro-2-methylpyrido[4,3-b]indol-5-yl)propanoic acid]",-2%,10%,-3%,3%
"CCOC(=O)Cn1c2c(c3cc(C)ccc31)CN(C)CC2 [CD57, ethyl 2-(1,2,3,4-tetrahydro-2,8-dimethylpyrido[4,3-b]indol-5-yl)acetate]",45%,65%,67%,12%
"Cc1ccc2c(c1)c1c(n2CC(=O)O)CCN(C)C1 [CD58, 2-(1,2,3,4-tetrahydro-2,8-dimethylpyrido[4,3-b]indol-5-yl)acetic acid]",-7%,-6%,-5%,2%
"Cc1ccc2c(c1)c1c(n2CC#N)CCN(C)C1 [CD61, 2-(1,2,3,4-tetrahydro-2,8-dimethylpyrido[4,3-b]indol-5-yl)acetonitrile]",73%,89%,68%,
"Cc1ccc2c(c1)c1c(n2CCN)CCN(C)C1 [CD62, 2-(1,2,3,4-tetrahydro-2,8-dimethylpyrido[4,3-b]indol-5-yl)ethanamine]",42%,32%,12%,26%
"C#CCn1c2c(c3cc(C)ccc31)CN(C)CC2 [CD73, 2,8-dimethyl-5-(prop-2-ynyl)-2,3,4,5-tetrahydro-1H-pyrido[4,3-b]indole]",70%,101%,83%,
"CN1CCc2c(c3cc(Cl)ccc3n2CCCO)C1 [CD87, 3-(8-chloro-2-methyl-3,4-dihydro-1H-pyrido[4,3-b]indol-5(2H)-yl)propan-1-ol]",79%,103%,35%,10%
"CNC(=O)CCn1c2c(c3cc(C)ccc31)CN(C)CC2 [Compound 1, 3-(1,2,3,4-tetrahydro-2,8-dimethylpyrido[4,3-b]indol-5-yl)-N-methylpropanamide]",18%,51%,8%,
"CCNC(=O)CCn1c2c(c3cc(C)ccc31)CN(C)CC2 [Compound 2, N-ethyl-3-(1,2,3,4-tetrahydro-2,8-dimethylpyrido[4,3-b]indol-5-yl)propanamide]",35%,55%,19%,
"Cc1ccc2c(c1)c1c(n2CCC(=O)NC2CCCCC2)CCN(C)C1 [Compound 3, N-cyclohexyl-3-(1,2,3,4-tetrahydro-2,8-dimethylpyrido[4,3-b]indol-5-yl)propanamide]",14%,80%,19%,
"Cc1ccc2c(c1)c1c(n2CCC(=O)NC2CCCC2)CCN(C)C1 [Compound 4, N-cyclopentyl-3-(1,2,3,4-tetrahydro-2,8-dimethylpyrido[4,3-b]indol-5-yl)propanamide]",45%,93%,28%,
"CCOC(=O)CCCn1c2c(c3cc(C)ccc31)CN(C)CC2 [Compound 5, ethyl 4-(1,2,3,4-tetrahydro-2,8-dimethylpyrido[4,3-b]indol-5-yl)butanoate]",74%,98%,88%,
"CCNC(=O)CCCn1c2c(c3cc(C)ccc31)CN(C)CC2 [Compound 6, N-ethyl-4-(1,2,3,4-tetrahydro-2,8-dimethylpyrido[4,3-b]indol-5-yl)butanamide]",59%,36%,23%,
"Cc1ccc2c(c1)c1c(n2CCNC(=O)OCC(Cl)(Cl)Cl)CCN(C)C1 [Compound 8, 2,2,2-trichloroethyl 2-(1,2,3,4-tetrahydro-2,8-dimethylpyrido[4,3-b]indol-5-yl)ethylcarbamate]",90%,102%,83%,
